Assay results as given in publication PMC12751012, “Nanoscale Direct-to-Biology Optimization and Structural Insights into Selective S. aureus TrmD Inhibitors” (Journal of Medicinal Chemistry, 2025).
Several values for one entry are separate records, joined by “and”; a condition that tells them apart may be missing. Identical values can stand only once. Counter-ions that a name gives are not always drawn.

What was measured:
Assay type in all cases: binding
H. influenzae TrmD [1] = biological target: T1, H. influenzae TrmD (Haemophilus influenzae, UniProt P43912); assay: Isothermal titration calorimetry (ITC) on H. influenzae TrmD
T1 construct: host or cells: E. coli BL21
T1 sequence (P43912 whole entry): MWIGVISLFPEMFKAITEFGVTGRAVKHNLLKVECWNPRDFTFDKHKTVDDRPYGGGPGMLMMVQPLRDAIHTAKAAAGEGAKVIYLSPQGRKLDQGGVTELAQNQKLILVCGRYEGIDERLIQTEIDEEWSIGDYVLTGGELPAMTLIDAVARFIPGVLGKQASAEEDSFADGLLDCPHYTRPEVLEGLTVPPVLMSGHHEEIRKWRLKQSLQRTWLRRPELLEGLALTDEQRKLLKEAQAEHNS
Experimental: (§1) Experiments were conducted in the S. aureus TrmD SEC buffer (40 mM Tris, pH 7.5, 100 mM NaCl, 10 mM MgCl2, 5% glycerol) for the S. aureus enzyme. The H. influenzae enzyme was buffer exchanged into its ITC buffer (50 mM HEPES, pH 7.5; 500 mM NaCl; 5% glycerol) using Amicon Ultra-15 centrifugal filter units (Merck) prior to use. Compound 1 (BLD Pharmatech) and compound 2 were dissolved in DMSO to a final concentration of 20.0 and 11.6 mM, respectively, and diluted in ITC buffer to give ligand solutions at 1 and 0.58 mM, respectively. Due to a low enthalpy signal, a low c-value titration was performed for compound 1. In this type of experiment, the ligand is typically added at high concentration and in large excess relative to its binding partner, driving more binding events per injection. This causes the equivalence point to be reached after only a few injections and leads to the loss of the characteristic sigmoidal binding curve. TrmD was diluted to a final concentration of 50 μM, and DMSO was added to a final concentration of 5% to match the buffers. ITC measurements were performed using a MicroCal PEAQ-ITC Automated workstation (Malvern Panalytical) equipped with a 200 μL Hastelloy cell and a 40 μL injection syringe. […] Data were analyzed and fitted using the MicroCal PEAQ-ITC Analysis Software 1.21 and plotted in GraphPad Prism 8.0.1.

S. aureus TrmD [2] = biological target: T2, S. aureus TrmD (Staphylococcus aureus, UniProt Q2FZ43); assay: Fluorescence polarization (FP) assay, tracer 4, S. aureus TrmD; conditions: KD S. aureus TrmD (FP displacement assay), apparent affinity, purified compound, 500 nM TrmD, 10 nM tracer 4
T2 construct: made in house; host or cells: E. coli BL21
T2 sequence (Q2FZ43 1-245): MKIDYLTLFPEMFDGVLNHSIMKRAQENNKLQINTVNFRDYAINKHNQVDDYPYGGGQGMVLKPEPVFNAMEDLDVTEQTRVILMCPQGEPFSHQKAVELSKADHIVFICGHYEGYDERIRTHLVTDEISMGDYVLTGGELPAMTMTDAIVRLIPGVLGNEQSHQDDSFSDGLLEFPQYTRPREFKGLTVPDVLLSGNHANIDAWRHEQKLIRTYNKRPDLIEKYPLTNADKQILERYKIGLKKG
Experimental: To enable the screening of hundreds of nanomole-scale synthesized compounds, the implementation of a high-throughput-capable RNA methyltransferase (MTase) assay is considered fundamental. […] In this assay format, a fluorescent, SAM-pocket binding tracer can be displaced by the compound under investigation, and the resulting change in fluorescence polarization defines the read-out of the inhibitor compound’s affinity (Figure A).
(§2) Fluorescence polarization (FP) assays were performed as follows. The assays for H. influenzae TrmD have been described previously. All assays were conducted in technical triplicate using black 96-well half area plates. For the FP assays, a tracer (20 nM Cy5TPD for E. coli and H. influenzae TrmD, 10 nM tracer 4 for S. aureus TrmD) was mixed with the respective enzyme (2 μM E. coli TrmD, 2 μM H. influenzae TrmD, 500 nM S. aureus TrmD) in buffer (E. coli and H. influenzae TrmD: 50 mM HEPES, 500 mM NaCl, 5% Glycerol, pH 7.5, S. aureus TrmD: 40 mM Tris HCl, 100 mM NaCl, 10 mM MgCl2, 5% Glycerol, pH 7.5). The compounds were added in varying concentrations for K D-value determination. […] The Z-factor for tracer 4 was determined by measuring 48 replicates of the free tracer (positive controls, PC) and 48 replicates of a mixture of enzyme and tracer (negative controls, NC). The Z-factor is defined in terms of the means (μ) and standard deviations (σ) of the positive and negative controls and calculated as Z = 1–(3*(σnc + σpc)/(μnc–μpc)). […] Polarization values (mP) were determined from polarization-specific parallel and orthogonal fluorescence intensities. K D-values were calculated in GraphPad Prism 8.0.1 using the four-parameter Hill equation: y(% tracer bound) = bottom + ([ligand]-slope) × (top–bottom)/([ligand]-slope + K Dslope).

S. aureus TrmD [3] = biological target: T2, S. aureus TrmD; assay: Isothermal titration calorimetry (ITC) on recombinant S. aureus TrmD
Experimental: as §1

S. aureus TrmD [4] = biological target: T2, S. aureus TrmD; assay: Fluorescence polarization (FP) assay, tracer 4, S. aureus TrmD; conditions: enzyme concentration varied, read-out: KD of fluorescent tracer, S. aureus TrmD (FP)
H. influenzae TrmD [5] = biological target: T1, H. influenzae TrmD; assay: Fluorescence polarization (FP) assay, tracer 3 (Cy5TPD), H. influenzae TrmD; conditions: tracer, enzyme concentration varied; read-out: KD of fluorescent tracer, H. influenzae TrmD (FP)
Experimental: as §2

Kd (H. influenzae TrmD [1]) | Kd (S. aureus TrmD [2]) | Kd (S. aureus TrmD [3]) | Kd (S. aureus TrmD [4]) | Kd (H. influenzae TrmD [5]) | SMILES
24.3 ± 6.16 µM | 28.6 µM | 19.8 µM | – | – | Oc1ncnc2scc(-c3ccccc3)c12 [Compound 1, O=C1NC=NC2=C1C(C3=CC=CC=C3)=CS2]
4.55 ± 0.31 µM | 13.8 µM | 12.9 µM | – | – | NCc1ccc(CNC(=O)c2csc3nc[nH]c(=O)c23)cc1 [Compound 2, N-(4-(Aminomethyl)benzyl)-4-oxo-3,4-dihydrothieno[2,3-d]pyrimidine-5-carboxamide]
– | – | – | 23.3 µM | 2 µM and 2.02 µM | CN1/C(=C/C=C/C=C/C2=[N+](CCCCCC(=O)NCCCn3cc(CNC(=O)c4csc5nc[nH]c(=O)c45)nn3)c3ccccc3C2(C)C)C(C)(C)c2ccccc21 [Compound 3, reference compound]
– | – | – | 0.659 µM and 0.66 µM | – | CN1/C(=C/C=C/C=C/C2=[N+](CCCCCC(=O)NCCCn3cc(-c4c[nH]c5nc[nH]c(=O)c45)nn3)c3ccccc3C2(C)C)C(C)(C)c2ccccc21 [Compound 4, 3,3-Dimethyl-1-(6-oxo-6-((3-(4-(4-oxo-4,7-dihydro-3H-pyrrolo[2,3-d]pyrimidin-5-yl)-1H-1,2,3-triazol-1-yl)propyl)amino)hexyl)-2-((1E,3E)-5-((E)-1,3,3-trimethylindolin-2-ylidene)penta-1,3-dien-1-yl)-3H-indol-1-ium trifluoroacetate]
